Test results published in patent US7956069B2, “Compounds” (AstraZeneca AB, priority 2006, dated 2011).

Legend:
Type in all cases: cell-based
[1] = target: T1, hM1 (human Muscarinic receptor subtype 1) (Homo sapiens, UniProt P11229); assay: Human M1 calcium mobilization FLIPR assay; details: CHO cells expressing hM1, Ca2+ release
T1 construct: expressed in transfected cells; host or cells: CHO cells (Chinese hamster ovary cells, ATCC)
T1 sequence (P11229 1-460): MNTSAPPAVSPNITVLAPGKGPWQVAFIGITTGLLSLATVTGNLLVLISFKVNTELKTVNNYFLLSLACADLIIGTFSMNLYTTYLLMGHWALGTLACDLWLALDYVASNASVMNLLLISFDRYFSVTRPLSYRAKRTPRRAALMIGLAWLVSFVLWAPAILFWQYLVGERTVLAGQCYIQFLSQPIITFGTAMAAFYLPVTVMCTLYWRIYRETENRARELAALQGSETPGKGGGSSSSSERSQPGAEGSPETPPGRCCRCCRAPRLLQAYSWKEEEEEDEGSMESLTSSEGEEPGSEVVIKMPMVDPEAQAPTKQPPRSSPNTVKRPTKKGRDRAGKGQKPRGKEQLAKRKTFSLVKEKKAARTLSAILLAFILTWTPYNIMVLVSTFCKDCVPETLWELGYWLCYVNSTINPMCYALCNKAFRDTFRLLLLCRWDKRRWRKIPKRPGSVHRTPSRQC
Procedure: (§1) Biological Evaluation Human M1, Rat M1, Human M3 and Human M5 Calcium Mobilization FLIPR™ Assay
(§2) The compound activity in the present invention (EC50 or IC50) was measured using a 384 plate-based imaging assay that monitors drug induced intracellular Ca^2+ release in whole cells. Activation of hM1 (human Muscarinic receptor subtype 1, gene bank access NM_000738), rM1 (rat Muscarinic receptor subtype 1, gene bank access NM_080773), hM3 (human Muscarinic receptor subtype 3, gene bank access NM_000740NM_000740) and hM5 (human Muscarinic receptor subtype 5, gene bank access NM_0121258), receptors expressed in CHO cells (Chinese hamster ovary cells, ATCC) was quantified in a Molecular Devices FLIPR II™ instrument as an increase in fluorescent signal. Inhibition of hM3 and hM5 by compounds was determined by the decrease in fluorescent signal in response to 20 nM carbachol activation.
(§3) CHO cells were plated in 384-black polylysine coated plate (Costar) at 8000 cells/well/50 μl for 24 hours or 4000 cells/well for 48 hours in a humidified incubator (5% CO2 and 37° C.) in DMEM/F12 medium without selection agent. Prior to the experiment the cell culture medium was removed from the plates by inversion. A loading solution of 30 μl of Hank's balanced salt solution, 10 mM Hepes and 2.5 mM Probenicid at Ph 7.4 (Cat no. 311-520-VL, Wisent) with 2 μM calcium indicator dye (FLUO-3AM, Molecular Probes F14202) was added to each well. Plates were incubated at 37° C. for 60 minutes prior to start the experiment. The incubation was terminated by washing the cells four times in assay buffer, leaving a residual 25 μl buffer per well. Cell plates were then transferred to the FLIPR, ready for compound additions.
(§4) The day of experiment, carbachol and compounds were diluted in three-fold concentration range (10 points serial dilution) for addition by FLIPR instrument. For all calcium assays, a baseline reading was taken for 30 seconds followed by the addition of 12.5 μl (25 μl for hM1 and rM1) of compounds, resulting in a total well volume of 37.5 μl (50 μl for hM1 and rM1). Data were collected every 1.6 seconds for 300 seconds. For hM3 and hM5 an additional 12.5 μl of carbachol (20 nM final) was added at 300 seconds. After this addition of carbachol (producing a final volume of 50 μl), the FLIPR continued to collect data every 2 seconds for 240 seconds. The fluorescence emission was read using filter 1 (emission 520-545 nm) by the FLIPR on board CCD camera.
(§5) Calcium mobilization output data were calculated as the maximal relative fluorescence unit (RFU) minus the minal value for both compound and agonist reading frame (except for hM1 and rM1 using only the maximal RFU). Data were analyzed using sigmoidal fits of a non-linear curve-fitting program (XLfit version 5.0.6 from ID Business Solutions Limited, Guildford, UK). All EC50 and IC50 values are reported as arithmetic means±standard error of mean of ‘n’ independent experiments.

[2] = target: T2, hM5 (human Muscarinic receptor subtype 5) (Homo sapiens, UniProt P08912); assay: Human M5 calcium mobilization FLIPR assay; details: CHO cells expressing hM5, Ca2+ release
T2 construct: expressed in transfected cells; host or cells: CHO cells (Chinese hamster ovary cells, ATCC)
T2 sequence (P08912 1-532): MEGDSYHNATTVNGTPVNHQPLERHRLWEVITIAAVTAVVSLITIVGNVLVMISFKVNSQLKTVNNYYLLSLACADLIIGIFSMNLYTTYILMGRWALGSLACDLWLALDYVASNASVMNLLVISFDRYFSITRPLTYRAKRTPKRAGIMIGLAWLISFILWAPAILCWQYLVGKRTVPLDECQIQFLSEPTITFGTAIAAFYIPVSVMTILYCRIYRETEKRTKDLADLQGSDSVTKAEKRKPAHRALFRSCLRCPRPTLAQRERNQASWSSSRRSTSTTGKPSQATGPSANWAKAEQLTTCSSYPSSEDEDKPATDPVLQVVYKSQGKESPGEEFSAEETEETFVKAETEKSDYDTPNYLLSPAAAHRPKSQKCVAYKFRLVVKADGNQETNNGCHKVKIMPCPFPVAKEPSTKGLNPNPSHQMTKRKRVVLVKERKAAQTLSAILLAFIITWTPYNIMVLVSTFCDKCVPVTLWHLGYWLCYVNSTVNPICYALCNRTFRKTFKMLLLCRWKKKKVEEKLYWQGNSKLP
Procedure: as §1, §2, §3, §4, §5

[3] = target: T3, hM3 (human Muscarinic receptor subtype 3) (Homo sapiens, UniProt P20309); assay: Human M3 calcium mobilization FLIPR assay; details: CHO cells expressing hM3, Ca2+ release
T3 construct: expressed in transfected cells; host or cells: CHO cells (Chinese hamster ovary cells, ATCC)
Procedure: as §1, §2, §3, §4, §5

T3 sequence (P20309 whole entry): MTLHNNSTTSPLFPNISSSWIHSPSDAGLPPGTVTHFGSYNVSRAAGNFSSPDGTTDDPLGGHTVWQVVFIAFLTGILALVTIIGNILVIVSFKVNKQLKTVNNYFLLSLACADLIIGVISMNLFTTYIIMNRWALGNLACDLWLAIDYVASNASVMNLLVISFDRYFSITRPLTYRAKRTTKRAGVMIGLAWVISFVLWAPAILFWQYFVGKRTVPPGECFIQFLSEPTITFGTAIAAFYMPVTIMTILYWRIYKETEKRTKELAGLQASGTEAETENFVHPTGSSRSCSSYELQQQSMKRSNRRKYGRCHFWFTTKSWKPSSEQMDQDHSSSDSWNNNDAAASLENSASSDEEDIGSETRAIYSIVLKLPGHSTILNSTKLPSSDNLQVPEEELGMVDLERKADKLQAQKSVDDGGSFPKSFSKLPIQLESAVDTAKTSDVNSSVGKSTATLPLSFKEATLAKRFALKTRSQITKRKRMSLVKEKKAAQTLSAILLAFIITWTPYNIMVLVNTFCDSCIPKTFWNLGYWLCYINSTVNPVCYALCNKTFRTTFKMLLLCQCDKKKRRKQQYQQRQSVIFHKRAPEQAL

O=C(C1CC1(F)F)N1CCC(N2CCC(N3C(=O)N[C@H]4CCCC[C@@H]43)CC2)CC1 (some centres unmarked)
EC50 [1]: 81 nM

O=C(C1CCCC1)N1CCC(N2CCC(N3C(=O)N[C@@H]4CCCC[C@@H]43)CC2)CC1
EC50 [1]: 300 nM

CCOC(=O)N1CCC(N2CCC(N3C(=O)C[C@H]4CCCC[C@@H]43)CC2)C1 (single isomer, unassigned)
EC50 [1]: 59 nM

Cc1ccccc1C(=O)N1CCC(N2CCC(N3C(=O)C[C@H]4CCCC[C@@H]43)CC2)CC1
EC50 [1]: 93 nM | EC50 [2]: > 40000 nM | EC50 [3]: > 40000 nM

CCOC(=O)N1CCC(N2CCC(N3C(=O)N(C(C)C)[C@H]4CCCC[C@@H]43)CC2)CC1
EC50 [1]: 1200 nM | EC50 [2]: > 40000 nM | EC50 [3]: > 40000 nM

CCNC(=O)N1CCC(N2CCC(N3C(=O)N[C@@H]4CCCC[C@H]43)CC2)C1 (mixture of isomers)
EC50 [1]: 1000 nM

O=C(c1ccccc1)N1CCC(N2CCC(N3C(=O)N[C@@H]4CCCC[C@H]43)CC2)CC1
EC50 [1]: 600 nM
